From ChEMBL document CHEMBL5346943, “Discovery and Structural Optimization of Novel Quinolone Derivatives as Potent Irreversible Pan-Fibroblast Growth Factor Receptor Inhibitors for Treating Solid Tumors” (J Med Chem, 2023)
Values after ≈ are worked out from the molar mass of the structure shown. Active and inactive are the calls of the source. No cut-off for these calls is given here.

Assays:
[1] = molecular target: Fibroblast growth factor receptor 1 (Homo sapiens, UniProt P11362); test: Inhibition of FGFR1 (unknown origin) incubated for 10 mins followed by substrate addition measured after 60 mins by ADP-Glo luminescence assay
[2] = molecular target: Fibroblast growth factor receptor 4 (Homo sapiens, UniProt P22455); test: Inhibition of FGFR4 (unknown origin) incubated for 10 mins followed by substrate addition measured after 60 mins by ADP-Glo luminescence assay
[3] = test system: Huh-7; test: Antiproliferative activity against human Huh-7 cells incubated for 72 hrs by Cell counting kit 8 method; assay type: functional, cell-based; details: Huh-7, 72 h
[4] = test system: Hep 3B2; test: Antiproliferative activity against human Hep3B cells incubated for 72 hrs by Cell counting kit 8 method; assay type: functional, cell-based
[5] = molecular target: Fibroblast growth factor receptor 3 (Homo sapiens, UniProt P22607); test: Inhibition of FGFR3 (unknown origin) incubated for 10 mins followed by substrate addition measured after 60 mins by ADP-Glo luminescence assay
[6] = Microsomal stability in human liver microsomes assessed as half life preincubated for 10 mins followed by NADPH addition measured upto 60 mins by LC-MS/MS analysis; assay type: ADME, Microsome; details: time < 70 min
[7] = Microsomal stability in human liver microsomes assessed as intrinsic clearance preincubated for 10 mins followed by NADPH addition measured upto 60 mins by LC-MS/MS analysis; assay type: ADME, Microsome; details: time < 70 min, read-out: CLH
[8] = Solubility of the compound in PBS buffer of pH7.4 at 10 mM measured after 2 hrs by LC-MS/MS analysis; assay type: physicochemical; details: pH 7.4
[9] = Ionization constant, pKa of the compound in PBS buffer at pH 1.42 to 12.33 by electrochemical method; assay type: physicochemical
[10] = C0 in Sprague-Dawley rat measured at 2 mg/kg, iv for 0.083 to 24 hrs by LC-MS/MS analysis; assay type: ADME, organism-based; details: in vivo, time 0.083-24 hrs
[11] = Half life in Sprague-Dawley rat measured at 2 mg/kg, iv for 0.083 to 24 hrs by LC-MS/MS analysis; assay type: ADME, organism-based; details: in vivo, time 0.083-24 hrs
[12] = AUC (0 to t) in Sprague-Dawley rat measured at 2 mg/kg, iv for 0.083 to 24 hrs by LC-MS/MS analysis; assay type: ADME, organism-based; parameters: dose 2 mg/kg, time upper 24 hrs, time lower 0.083 hrs, route iv; details: in vivo
[13] = AUC (0 to infinity) in Sprague-Dawley rat measured at 2 mg/kg, iv for 0.083 to 24 hrs by LC-MS/MS analysis; assay type: ADME, organism-based; parameters: time lower 0.083 hrs, dose 2 mg/kg, time upper 24 hrs, route iv; details: in vivo
[14] = MRT (0 to t) in Sprague-Dawley rat measured at 2 mg/kg, iv for 0.083 to 24 hrs by LC-MS/MS analysis; assay type: ADME, organism-based; details: in vivo, time 0.083-24 hrs
[15] = Clearance in Sprague-Dawley rat measured at 2 mg/kg, iv for 0.083 to 24 hrs by LC-MS/MS analysis; assay type: ADME, organism-based; details: in vivo, time 0.083-24 hrs
[16] = Volume of distribution at steady state in Sprague-Dawley rat measured at 2 mg/kg, iv for 0.083 to 24 hrs by LC-MS/MS analysis; assay type: ADME, organism-based; details: in vivo, time 0.083-24 hrs, read-out: Vdss
[17] = Half life in Sprague-Dawley rat measured at 10 mg/kg, po for 0.083 to 24 hrs by LC-MS/MS analysis; assay type: ADME, organism-based; details: in vivo, time 0.083-24 hrs
[18] = AUC (0 to t) in Sprague-Dawley rat measured at 10 mg/kg, po for 0.083 to 24 hrs by LC-MS/MS analysis; assay type: ADME, organism-based; parameters: dose 10 mg/kg, time upper 24 hrs, time lower 0.083 hrs, route po; details: in vivo
[19] = MRT (0 to t) in Sprague-Dawley rat measured at 10 mg/kg, po for 0.083 to 24 hrs by LC-MS/MS analysis; assay type: ADME, organism-based; details: in vivo, time 0.083-24 hrs
[20] = Oral bioavailability in Sprague-Dawley rat measured at 10 mg/kg for 0.083 to 24 hrs by LC-MS/MS analysis; assay type: ADME, organism-based; details: in vivo, time 0.083-24 hrs
[21] = Cmax in Sprague-Dawley rat measured at 30 mg/kg, po for 0.083 to 24 hrs by LC-MS/MS analysis; assay type: ADME, organism-based; parameters: dose 30 mg/kg, time upper 24 hrs, time lower 0.083 hrs, route po; details: in vivo
[22] = Cmax in Sprague-Dawley rat measured at 60 mg/kg, po for 0.083 to 24 hrs by LC-MS/MS analysis; assay type: ADME, organism-based; parameters: dose 60 mg/kg, time 0.083-24 hrs, route po; details: in vivo
[23] = Half life in Sprague-Dawley rat measured at 100 mg/kg, po for 0.083 to 24 hrs by LC-MS/MS analysis; assay type: ADME, organism-based; details: in vivo, time 0.083-24 hrs
[24] = Tmax in Sprague-Dawley rat measured at 60 mg/kg, po for 0.083 to 24 hrs by LC-MS/MS analysis; assay type: ADME, organism-based; details: in vivo, time 0.083-24 hrs
[25] = Tmax in Sprague-Dawley rat measured at 100 mg/kg, po for 0.083 to 24 hrs by LC-MS/MS analysis; assay type: ADME, organism-based; details: in vivo, time 0.083-24 hrs
[26] = AUC(0 to t) in Sprague-Dawley rat measured at 30 mg/kg, po for 0.083 to 24 hrs by LC-MS/MS analysis; assay type: ADME, organism-based; parameters: time 0.083-24 hrs, dose 30 mg/kg, route po; details: in vivo
[27] = AUC(0 to t) in Sprague-Dawley rat measured at 60 mg/kg, po for 0.083 to 24 hrs by LC-MS/MS analysis; assay type: ADME, organism-based; parameters: time upper 24 hrs, time lower 0.083 hrs, dose 60 mg/kg, route po; details: in vivo
[28] = AUC(0 to t) in Sprague-Dawley rat measured at 100 mg/kg, po for 0.083 to 24 hrs by LC-MS/MS analysis; assay type: ADME, organism-based; parameters: time upper 24 hrs, dose 100 mg/kg, time lower 0.083 hrs, route po; details: in vivo
[29] = AUC(0 to infinity) in Sprague-Dawley rat measured at 60 mg/kg, po for 0.083 to 24 hrs by LC-MS/MS analysis; assay type: ADME, organism-based; parameters: time lower 0.083 hrs, dose 60 mg/kg, time upper 24 hrs, route po; details: in vivo
[30] = test system: MV4-11; test: Antiproliferative activity against human MV4-11 cells incubated for 72 hrs by Cell counting kit 8 method; assay type: functional, cell-based; details: MV4-11, 72 h
[31] = test system: HT-29; test: Antiproliferative activity against human HT-29 cells incubated for 72 hrs by Cell counting kit 8 method; assay type: functional, cell-based; details: HT-29, 72 h
[32] = test system: A549; test: Antiproliferative activity against human A549 cells incubated for 72 hrs by Cell counting kit 8 method; assay type: functional, cell-based; details: A549, 72 h
[33] = test system: SNU-16; test: Antiproliferative activity against human SNU-16 cells incubated for 72 hrs by Cell counting kit 8 method; assay type: functional, cell-based; details: SNU-16, 72 h
[34] = test system: Huh-7; test: Antitumor activity against human Huh-7 cells xenografted in BALB/c nude mouse assessed as reduction in tumor growth once daily at 60 mg/kg, po for 24 days; assay type: functional, organism-based; details: time 24.0 day
[35] = test system: Huh-7; test: Antitumor activity against human Huh-7 cells xenografted in BALB/c nude mouse assessed as tumor growth inhibition once daily at 60 mg/kg, po for 24 days relative to control; assay type: functional; parameters: scale not given: the % may be the effect or the level left; details: time 24 day
[36] = test system: Huh-7; test: Antitumor activity against human Huh-7 cells xenografted in BALB/c nude mouse assessed as tumor growth inhibition once daily at 30 mg/kg, po for 24 days relative to control; assay type: functional; parameters: scale not given: the % may be the effect or the level left; details: time 24 day
[37] = test system: NCI-H1581; test: Antitumor activity against human NCI-H1581 cells xenografted in BALB/c nude mouse assessed as tumor growth inhibition once daily at 60 mg/kg, po for 24 days relative to control; assay type: functional; parameters: scale not given: the % may be the effect or the level left; details: time 24 day
[38] = Toxicity in […] nude mouse xenografted with NCI-H1581 cells assessed as change in body weight once daily at 15 to 60 mg/kg, po for 24 days relative to control; assay type: organism-based; details: in vivo, 576 h, dose 15-60 mg/kg, time 24 day
[39] = Toxicity in […] nude mouse xenografted with Huh-7 cells assessed as change in body weight once daily at 15 to 60 mg/kg, po for 24 days relative to control; assay type: organism-based; details: in vivo, 576 h, dose 15-60 mg/kg, time 24 day

Chain of Fibroblast growth factor receptor 3 (P22607 whole entry): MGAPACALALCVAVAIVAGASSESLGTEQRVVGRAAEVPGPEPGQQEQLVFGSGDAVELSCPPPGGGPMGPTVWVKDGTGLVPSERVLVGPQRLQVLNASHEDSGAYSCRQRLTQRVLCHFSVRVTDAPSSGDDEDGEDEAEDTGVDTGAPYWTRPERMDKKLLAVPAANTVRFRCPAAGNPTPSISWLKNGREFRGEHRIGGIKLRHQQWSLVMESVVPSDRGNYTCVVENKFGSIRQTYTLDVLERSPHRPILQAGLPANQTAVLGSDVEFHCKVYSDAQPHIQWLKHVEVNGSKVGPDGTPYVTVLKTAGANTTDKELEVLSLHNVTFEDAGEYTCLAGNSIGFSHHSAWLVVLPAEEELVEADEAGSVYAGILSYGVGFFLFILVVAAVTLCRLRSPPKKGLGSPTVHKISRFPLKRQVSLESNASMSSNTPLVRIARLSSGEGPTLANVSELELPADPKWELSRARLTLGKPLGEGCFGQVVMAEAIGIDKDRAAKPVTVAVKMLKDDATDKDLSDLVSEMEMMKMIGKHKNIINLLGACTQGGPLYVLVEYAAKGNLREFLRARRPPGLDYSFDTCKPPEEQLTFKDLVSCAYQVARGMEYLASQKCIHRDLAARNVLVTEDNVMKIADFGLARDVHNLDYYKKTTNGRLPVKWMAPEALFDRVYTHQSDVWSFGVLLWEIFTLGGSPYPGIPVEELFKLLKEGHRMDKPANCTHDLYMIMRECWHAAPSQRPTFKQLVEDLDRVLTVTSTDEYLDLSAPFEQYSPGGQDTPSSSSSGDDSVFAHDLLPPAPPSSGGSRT
Chain of Fibroblast growth factor receptor 4 (P22455 whole entry): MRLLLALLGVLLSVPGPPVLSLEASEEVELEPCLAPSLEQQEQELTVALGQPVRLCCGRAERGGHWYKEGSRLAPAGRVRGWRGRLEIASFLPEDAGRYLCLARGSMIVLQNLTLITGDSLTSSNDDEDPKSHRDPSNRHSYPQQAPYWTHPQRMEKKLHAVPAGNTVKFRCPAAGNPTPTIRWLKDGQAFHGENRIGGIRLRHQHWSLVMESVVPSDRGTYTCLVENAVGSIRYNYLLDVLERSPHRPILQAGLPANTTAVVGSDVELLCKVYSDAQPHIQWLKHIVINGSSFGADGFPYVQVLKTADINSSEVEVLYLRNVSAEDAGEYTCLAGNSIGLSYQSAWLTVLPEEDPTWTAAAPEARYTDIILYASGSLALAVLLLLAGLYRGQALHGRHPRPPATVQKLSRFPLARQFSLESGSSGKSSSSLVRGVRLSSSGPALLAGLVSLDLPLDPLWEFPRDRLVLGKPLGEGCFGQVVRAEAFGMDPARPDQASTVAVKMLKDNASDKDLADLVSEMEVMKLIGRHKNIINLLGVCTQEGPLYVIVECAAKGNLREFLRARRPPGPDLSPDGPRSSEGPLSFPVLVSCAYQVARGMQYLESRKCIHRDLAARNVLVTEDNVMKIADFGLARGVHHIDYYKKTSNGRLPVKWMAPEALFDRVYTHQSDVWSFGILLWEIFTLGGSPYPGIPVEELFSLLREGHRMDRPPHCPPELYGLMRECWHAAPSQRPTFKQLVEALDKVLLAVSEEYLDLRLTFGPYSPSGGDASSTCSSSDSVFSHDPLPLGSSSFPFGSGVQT
Chain of Fibroblast growth factor receptor 1 (P11362 whole entry): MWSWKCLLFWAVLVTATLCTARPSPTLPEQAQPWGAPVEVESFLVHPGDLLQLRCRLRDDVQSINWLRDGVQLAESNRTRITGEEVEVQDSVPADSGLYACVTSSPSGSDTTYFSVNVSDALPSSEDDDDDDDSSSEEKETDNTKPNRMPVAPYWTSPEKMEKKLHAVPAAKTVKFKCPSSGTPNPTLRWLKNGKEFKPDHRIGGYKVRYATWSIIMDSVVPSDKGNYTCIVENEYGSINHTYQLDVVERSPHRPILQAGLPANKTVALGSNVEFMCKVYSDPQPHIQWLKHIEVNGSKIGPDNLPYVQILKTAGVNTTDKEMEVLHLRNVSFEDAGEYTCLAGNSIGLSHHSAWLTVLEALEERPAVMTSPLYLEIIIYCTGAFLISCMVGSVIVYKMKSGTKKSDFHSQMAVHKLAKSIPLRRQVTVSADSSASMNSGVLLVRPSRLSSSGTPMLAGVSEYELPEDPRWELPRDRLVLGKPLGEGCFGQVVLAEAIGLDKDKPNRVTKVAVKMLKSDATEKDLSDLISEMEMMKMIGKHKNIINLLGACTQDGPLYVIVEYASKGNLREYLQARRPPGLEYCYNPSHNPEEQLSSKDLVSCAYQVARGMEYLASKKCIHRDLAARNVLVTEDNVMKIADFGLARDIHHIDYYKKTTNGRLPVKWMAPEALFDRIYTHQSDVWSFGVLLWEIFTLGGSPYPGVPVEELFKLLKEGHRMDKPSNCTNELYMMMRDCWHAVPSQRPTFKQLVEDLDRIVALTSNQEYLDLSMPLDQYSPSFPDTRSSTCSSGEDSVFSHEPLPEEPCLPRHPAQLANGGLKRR

IC50 [1]: 9.9 nM | IC50 [2]: 1.8 nM | IC50 [3]: 12.6 nM | IC50 [5]: 16 nM | half-life [6]: 61.9 min | microsomal CLint [7]: 46.7 µL/min/mg | solubility at 2 h, 10000 µM [8]: 1.73 µM (≈ 0.901 µg/mL) | pKa [9]: 5.77 | C0 [10]: 3300 ng/mL | half-life [11]: 15.6 min | AUC(0-t) [12]: 570 ng·h/mL | AUC(0-inf) [13]: 572 ng·h/mL | MRT last [14]: 10.8 min | clearance [15]: 58 mL/min/kg | Vd [16]: 1.32 L/kg | half-life [17]: 149 min | AUC(0-t) [18]: 1730 ng·h/mL | MRT last [19]: 119 min | bioavailability [20]: 60.7% | Cmax [21]: 6070 ng/mL | Cmax [22]: 7990 ng/mL | half-life [23]: 81.6 min | Tmax [24]: 30 min | Tmax [25]: 30 min | AUC(0-t) [26]: 7920 ng·h/mL | AUC(0-t) [27]: 14900 ng·h/mL | AUC(0-t) [28]: 28100 ng·h/mL | AUC(0-inf) [29]: 14900 ng·h/mL | IC50 [30]: > 10000 nM | IC50 [31]: 7230 nM | IC50 [32]: > 10000 nM | IC50 [33]: 1.8 nM
SMILES: C=CC(=O)N1CCC(c2cc3c(Oc4ccc(NC(=O)NC5CC5)c(Cl)c4)ccnc3cc2OC)CC1
IC50 [4]: 52.6 nM | Activity [34]: Active | Activity [35]: 88.2% | Activity [36]: 89.6% | Activity [37]: 67% | Activity [38]: Active | Activity [39]: Active
